Data from patent publication US11369651B2, “Uses of FU-LING (Poria cocos) extract and tumulosic acid in protecting muscles” (SINPHAR PHARMACEUTICAL CO., LTD. (DONGSHAN, TAIWAN), priority 2016, dated 2022).

What was measured:
Type in all cases: cell-based, mice
[1] = system: myogenin; test: Expression of myoblast differentiation marker myogenin in C2C12 cells by Western blot; settings: for Expression level of myogenin (%): 4 days, control group = 100%; for increase of the expression level of myogenin protein: vs control
Excerpt: (§1) As described above, myogenin and MyHC can be used as markers for myoblast differentiation. To investigate whether FU-LING extract and tumulosic acid have the effect of promoting differentiation of myoblasts, tumulosic acid (purchased from Sinphar pharmaceutical co. ltd), FU-LING meat extract obtained from Example 1 (1-4), FU-LING epidermis extract obtained from Example 1 (1-6), and the FU-LING fermentation extract obtained from Example 1 (1-7) were formulated into the following: (1) tumulosic acid solution, (2) FU-LING meat extract solution, (3) FU-LING epidermis extract solution, and (4) FU-LING fermentation extract solution, respectively, in dimethyl sulfoxide (DMSO; purchased from Sigma Company).
(§2) After 80% confluence of cells was attained in H-DMEM medium, cells were separated into fourteen groups and treated as follows: • (1) Control group: The medium was replaced by a differentiation medium supplemented with 2% horse serum, and the cells were cultured for 4 days. • (2) Meat extract group (3 groups): The medium was replaced by a differentiation medium supplemented with 2% horse serum, and FU-LING meat extract solution was then added into the medium (the final concentration was 0.1, 1 or 10 ng/mL) to perform a co-treatment for 4 days. • (3) Epidermis extract group (4 groups): The medium was replaced by a differentiation medium supplemented with 2% horse serum, and FU-LING epidermis extract solution was then added into the medium (the final concentration was 0.01, 0.1, 0.5 or 1 ng/mL) to perform a co-treatment for 4 days. • (4) Fermentation extract group (3 groups): The medium was replaced by a differentiation medium supplemented with 2% horse serum, and FU-LING fermentation extract solution was then added into the medium (the final concentration was 0.2, 2, or 20 ng/mL) to perform a co-treatment for 4 days. • (5) Tumulosic acid group (4 groups): The medium was replaced by a differentiation medium supplemented with 2% horse serum, and tumulosic acid solution was then added into the medium (the final concentration was 0.01, 0.1, 1 or 10 ng/mL) to perform a co-treatment for 4 days.
(§3) After that, cell proteins in each group were extracted. Thereafter, the expression levels of myoblast differentiation markers (myogenin and MyHC) were detected by Western blot. Finally, the control group served as a basis (e.g., the expression level of the control group was 100%) for calculating the relative expression levels of myogenin and MyHC proteins in each group.

[2] = system: MyHC; test: Expression of myoblast differentiation marker MyHC in C2C12 cells by Western blot; settings: for Expression level of MyHC (%): 4 days, control group = 100%
Excerpt: as §1, §2, §3

[3] = system: C2C12 cells; test: TNF-α induced muscle cell injury model, intracellular ROS; settings: 4 days in differentiation medium, relative to 0 ng/mL
Procedure: Firstly, C2C12 cells (i.e., myoblasts of mice, purchased from ATCC) were cultured in H-DMEM medium (purchased from Sigma company) until 80% confluence was attained (i.e., the mixed cell monolayer comprised 80% of the area). Thereafter, the cells were separated into four groups, and the mediums of all the groups were replaced by differentiation mediums supplemented with 2% horse serum. TNF-α (purchased from Sigma company) was then added into those mediums to provide final concentrations of 0, 2, 5 or 10 ng/mL respectively. After being co-treated with the differentiation medium and TNF-α for 4 days, the intracellular reactive oxidative stress (ROS) of the C2C12 cells was measured to serve as the index for model evaluation. Accordingly, a TNF-α induced muscle cell injury model was established. Finally, the group that was not treated with TNF-α (i.e., the concentration of TNF-α was 0 ng/mL) served as a basis for calculating the relative intracellular ROS of the other groups. The results are shown in FIG. 1 (all the data are presented as average values±SEM, n=6, analyzed with a t-test, ***p<0.001).

| Compound | Expression level of myogenin (%) ([1]; 0.01 ng/mL) | Expression level of myogenin (%) ([1]; 0.1 ng/mL) | Expression level of myogenin (%) ([1]; 1 ng/mL) | Expression level of myogenin (%) ([1]; 10 ng/mL) | increase of the expression level of myogenin protein ([1]; 10 μg/ml) | increase of the expression level of myogenin protein ([1]; 0.01-0.1 μg/ml) | Expression level of MyHC (%) ([2]; 0.01 ng/mL) | Expression level of MyHC (%) ([2]; 0.1 ng/mL) | Expression level of MyHC (%) ([2]; 1 ng/mL) | Expression level of MyHC (%) ([2]; 10 ng/mL) | increase of the expression level of MyHC protein ([2]; 10 μg/ml, vs control) | intracellular reactive oxidative stress (ROS) of C2C12 cells ([3]; 5 ng/mL TNF-α) | intracellular reactive oxidative stress (ROS) of C2C12 cells ([3]; 10 ng/mL TNF-α) |
| --- | --- | --- | --- | --- | --- | --- | --- | --- | --- | --- | --- | --- | --- |
| C=C(CC[C@@H](C(=O)O)[C@H]1[C@H](O)C[C@@]2(C)C3=C(CC[C@]12C)[C@@]1(C)CC[C@H](O)C(C)(C)[C@@H]1CC3)C(C)C [Tumulosic acid, tumulosic acid] | 130 | 130 | 160 | 490 | about 390% | about 30% | 90 | 80 | 70 | 180 | about 80% | – | – |
| TNF-α | – | – | – | – | – | – | – | – | – | – | – | increased | significantly increased |
